Data reported in PubChem BioAssay (NCI).
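Interpolation was linear, between the two tested concentrations surrounding the appropriate level; five concentrations were tested over 48 hours in 96-well plates. Definition used: TGI = concentration required for complete inhibition of growth.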

Tests used:
Test in all cases: growth of human tumour cells (NCI), 48 h
COLO 205 colon = system: COLO 205 colon
SK-MEL-28 melanoma = system: SK-MEL-28 melanoma
DMS 273 small cell lung = system: DMS 273 small cell lung
A549 NSCLC = system: A549 NSCLC
EKVX NSCLC = system: EKVX NSCLC
RPMI-8226 leukemia = system: RPMI-8226 leukemia
SN12C renal = system: SN12C renal
K-562 leukemia = system: K-562 leukemia
LXFL 529 NSCLC = system: LXFL 529 NSCLC
786-0 renal = system: 786-0 renal
OVCAR-3 ovarian = system: OVCAR-3 ovarian
HOP-92 NSCLC = system: HOP-92 NSCLC
OVCAR-4 ovarian = system: OVCAR-4 ovarian
HCC-2998 colon = system: HCC-2998 colon
SW-620 colon = system: SW-620 colon
ACHN renal = system: ACHN renal
HOP-18 NSCLC = system: HOP-18 NSCLC
LOX IMVI melanoma = system: LOX IMVI melanoma
CAKI-1 renal = system: CAKI-1 renal
CCRF-CEM leukemia = system: CCRF-CEM leukemia
DMS 114 small cell lung = system: DMS 114 small cell lung
HCT-15 colon = system: HCT-15 colon
HOP-62 NSCLC = system: HOP-62 NSCLC
UO-31 renal = system: UO-31 renal
XF 498 CNS = system: XF 498 CNS
RXF 393 renal = system: RXF 393 renal
KM20L2 colon = system: KM20L2 colon
TK-10 renal = system: TK-10 renal
HT29 colon = system: HT29 colon
IGROV1 ovarian = system: IGROV1 ovarian
SNB-75 CNS = system: SNB-75 CNS
MALME-3M melanoma = system: MALME-3M melanoma
HL-60(TB) leukemia = system: HL-60(TB) leukemia
U251 CNS = system: U251 CNS
DLD-1 colon = system: DLD-1 colon
M19-MEL melanoma = system: M19-MEL melanoma
M14 melanoma = system: M14 melanoma
OVCAR-8 ovarian = system: OVCAR-8 ovarian
SK-OV-3 ovarian = system: SK-OV-3 ovarian
SF-295 CNS = system: SF-295 CNS
SNB-78 CNS = system: SNB-78 CNS
NCI-H460 lung = system: NCI-H460 lung
NCI-H23 lung = system: NCI-H23 lung
UACC-62 melanoma = system: UACC-62 melanoma

With `CC(=O)Oc1cc(OC(C)=O)c(OC(C)=O)c2c1CC1C(=O)C3(CCc4ccccc43)C(=O)C1C2` (centres undefined) the TGI (COLO 205 colon) was 37.9 µM, the TGI (SK-MEL-28 melanoma) was 36.5 µM and the TGI (DMS 273 small cell lung) was 34.9 µM. The TGI (A549 NSCLC) was 44.6 µM, the TGI (EKVX NSCLC) was 37.6 µM and the TGI (RPMI-8226 leukemia) was 13.1 µM. For the same compound, the TGI (SN12C renal) was 31 µM, the TGI (K-562 leukemia) was 28.1 µM and the TGI (LXFL 529 NSCLC) was 28 µM. It also gave a TGI (786-0 renal) of 26.4 µM, a TGI (OVCAR-3 ovarian) of 16.6 µM and a TGI (HOP-92 NSCLC) greater than 100 µM. The TGI (OVCAR-4 ovarian) was 24.1 µM, the TGI (HCC-2998 colon) was 25.2 µM and the TGI (SW-620 colon) was 42.7 µM. For the same compound, the TGI (ACHN renal) was 26.2 µM, the TGI (HOP-18 NSCLC) was 43.6 µM and the TGI (LOX IMVI melanoma) was 26.2 µM. The TGI (CAKI-1 renal) was 38.3 µM, the TGI (CCRF-CEM leukemia) was 75.9 µM and the TGI (DMS 114 small cell lung) was 29.4 µM. It also gave a TGI (HCT-15 colon) of 39.5 µM, a TGI (HOP-62 NSCLC) of 50.8 µM and a TGI (UO-31 renal) of 36.6 µM. It also gave a TGI (XF 498 CNS) of 27.9 µM, a TGI (RXF 393 renal) of 28.6 µM and a TGI (KM20L2 colon) of 48.3 µM. For the same compound, the TGI (TK-10 renal) was 31.7 µM, the TGI (HT29 colon) was 40.9 µM and the TGI (IGROV1 ovarian) was 38.6 µM. For the same compound, the TGI (SNB-75 CNS) was 16.7 µM, the TGI (MALME-3M melanoma) was 20.1 µM and the TGI (HL-60(TB) leukemia) was 22.4 µM. The TGI (U251 CNS) was 29.2 µM, the TGI (DLD-1 colon) was 35.2 µM and the TGI (M19-MEL melanoma) was 30.1 µM. The TGI (M14 melanoma) was greater than 100 µM, the TGI (OVCAR-8 ovarian) was 36.7 µM and the TGI (SK-OV-3 ovarian) was 58.8 µM. The TGI (SF-295 CNS) was 17.3 µM, the TGI (SNB-78 CNS) was 58.2 µM and the TGI (NCI-H460 lung) was 28.3 µM. The TGI (NCI-H23 lung) was 40.2 µM and the TGI (UACC-62 melanoma) was 31.3 µM.
